Test results: patent US20250338849A1 (priority 2022, published 2025)

Key:
Format in all cases: cell-based
[1] = system: Pyricularia oryzae; assay: microbe, parasite or virus in culture; conditions: for inhibition of growth at 0.063 ppm / inhibition of growth at 1 ppm / inhibition of growth at 4 ppm / inhibition of growth at 0.25 ppm / inhibition of growth at 0.016 ppm: Pyricularia oryzae, 168 h, read-out: Observed efficacy; for Observed efficacy: single active
[2] = system: Septoria tritici; assay: Activity against leaf blotch on wheat caused by Septoria tritici (microtiter plate); conditions: single active
[3] = system: Botrytis cinerea; assay: Activity against the grey mold Botrytis cinerea in the microtiterplate test; conditions: single active
[4] = Zymoseptoria tritici, 168 h, 0.063 ppm, read-out: Observed efficacy
[5] = Zymoseptoria tritici, 168 h, 0.25 ppm, read-out: Observed efficacy
[6] = Zymoseptoria tritici, 168 h, read-out: Observed efficacy
[7] = Botrytis cinerea, 168 h, read-out: Observed efficacy
[8] = Botrytis cinerea, 168 h, 0.063 ppm, read-out: Observed efficacy
[9] = Zymoseptoria tritici, 168 h, 0.016 ppm, read-out: Observed efficacy

COc1ccc2c(c1F)OC(C)(C)N=C2c1cnc(C(F)F)c(C)c1 [Compound 1-3]
inhibition of growth at 0.063 ppm [1]: 0%
inhibition of growth at 1 ppm [1]: 12%
inhibition of growth at 0.063 ppm [2, 4]: 21%
inhibition of growth at 0.25 ppm [2, 5]: 20%
inhibition of growth at 1 ppm [2, 6]: 18%
inhibition of growth at 1 ppm [3, 7]: 12%

O=C(Nc1ccccc1-c1ccc(Cl)cc1)c1cccnc1Cl [Boscalid, boscalid]
inhibition of growth at 4 ppm [1]: 12%
inhibition of growth at 0.25 ppm [2, 5]: 21%
inhibition of growth at 1 ppm [2, 6]: 62%
inhibition of growth at 1 ppm [3, 7]: 76%

CNC(=O)/C(=N/OC)c1ccccc1COc1cc(C)ccc1C [Dimoxystrobin, dimoxystrobin]
Observed efficacy ([3]; 0.25 ppm): 2%

COc1ccnc(C(=O)N[C@@H](C)C(=O)O[C@@H](C)C(c2ccc(F)cc2)c2ccc(F)cc2)c1OC(C)=O [Florylpicoxamid, florylpicoxamid]
Observed efficacy ([1]; 0.004 ppm): 28%
Observed efficacy ([1]; 0.016 ppm): 70%
Observed efficacy ([2]; 0.016 ppm): 47%

Cc1cccc(-n2nnn(C)c2=O)c1COc1ccn(-c2ccc(Cl)cc2)n1 [Methyltetraprol, metyltetraprole]
Observed efficacy ([1]; 0.016 ppm): 38%
Observed efficacy ([2]; 0.016 ppm): 51%

O=C(NCCc1ncc(C(F)(F)F)cc1Cl)c1ccccc1C(F)(F)F [Fluopyram, fluopyram]
inhibition of growth at 0.25 ppm [2, 5]: 33%

O=C(NC1CCC1c1ccc(Cl)cc1Cl)c1cccnc1C(F)(F)F (stereo in doubt) [Cyclobutrifuram, cyclobutrifluram]
Observed efficacy ([1]; 1 ppm): 14%
Observed efficacy ([2]; 0.25 ppm): 34%

Cn1cc(C(=O)Nc2ccccc2-c2cc(F)c(F)c(F)c2)c(C(F)F)n1 [Fluxapyroxad, fluxapyroxad]
Observed efficacy ([2]; 0.063 ppm): 27%
Observed efficacy ([3]; 0.063 ppm): 29%

O=[N+]([O-])c1cc(C(F)(F)F)c(Cl)c([N+](=O)[O-])c1Nc1ncc(C(F)(F)F)cc1Cl [Fluazinam, fluazinam]
inhibition of growth at 0.063 ppm [1]: 19%
inhibition of growth at 0.063 ppm [2, 4]: 5%

CC1COC(Cn2cncn2)(c2ccc(Oc3ccc(Cl)cc3)cc2Cl)O1 (stereo not drawn) [Difenoconazol, difenoconazole]
inhibition of growth at 0.063 ppm [3, 8]: 8%

Cc1cc(C2=NC(C)(C)Oc3c(F)cccc32)cnc1C(F)F [Compound 1-2]
inhibition of growth at 0.063 ppm [1]: 4%
inhibition of growth at 0.25 ppm [1]: 15%
inhibition of growth at 1 ppm [1]: 31%
inhibition of growth at 0.25 ppm [2, 5]: 0%
inhibition of growth at 1 ppm [2, 6]: 0%
inhibition of growth at 1 ppm [3, 7]: 19%

CC(C)NC(=O)N1CC(=O)N(c2cc(Cl)cc(Cl)c2)C1=O [Iprodion, iprodione]
inhibition of growth at 4 ppm [1]: 42%
inhibition of growth at 1 ppm [2, 6]: 9%
inhibition of growth at 1 ppm [3, 7]: 52%

Cc1ccc(NC(=O)c2snnc2C)cc1Cl [Tiadinil, tiadinil]
inhibition of growth at 4 ppm ([2]; Zymoseptoria tritici, 168 h, 4 ppm, read-out: Observed efficacy): 10%

Cc1cc(OC(C)C)ccc1C(=O)C(C)(C)NC(=O)c1sccc1C [Isofetamid, isofetamid]
Observed efficacy ([1]; 4 ppm): 15%
Observed efficacy ([2]; 0.25 ppm): 45%

Cc1cc(C2=NC(C)(C)Oc3c2ccc(F)c3F)cnc1C(F)F [Compound 1-1]
inhibition of growth at 0.016 ppm [1]: 8%
inhibition of growth at 0.063 ppm [1]: 10%
inhibition of growth at 0.25 ppm [1]: 21%
inhibition of growth at 1 ppm [1]: 65%
inhibition of growth at 0.004 ppm ([2]; Zymoseptoria tritici, 168 h, 0.004 ppm, read-out: Observed efficacy): 4%
inhibition of growth at 0.016 ppm [2, 9]: 3%
inhibition of growth at 0.063 ppm [2, 4]: 10%
inhibition of growth at 0.25 ppm [2, 5]: 22%
inhibition of growth at 1 ppm [3, 7]: 33%

CON(C(=O)c1cn(C)nc1C(F)F)C(C)Cc1c(Cl)cc(Cl)cc1Cl (stereo not drawn) [Pydiflumetofen, pydiflumetofen]
Observed efficacy ([2]; 0.016 ppm): 67%
Observed efficacy ([3]; 0.063 ppm): 15%

N#Cc1c[nH]cc1-c1cccc2c1OC(F)(F)O2 [Fludioxonil, fludioxonil]
inhibition of growth at 0.016 ppm [1]: 14%
inhibition of growth at 0.063 ppm [1]: 45%
inhibition of growth at 0.25 ppm [1]: 69%
inhibition of growth at 0.016 ppm [2, 9]: 1%

CO/C=C(/C(=O)OC)c1ccccc1Oc1cc(Oc2ccccc2C#N)ncn1 [Azoxystrobin, azoxystrobin]
Observed efficacy ([1]; 0.016 ppm): 59%
Observed efficacy ([2]; 0.016 ppm): 3%
Observed efficacy ([2]; 0.063 ppm): 43%

CC(C)(C)C(O)(CCc1ccc(Cl)cc1)Cn1cncn1 (stereo not drawn) [Tebuconazol, tebuconazole]
inhibition of growth at 0.25 ppm [1]: 10%
inhibition of growth at 0.25 ppm [2, 5]: 50%
inhibition of growth at 0.25 ppm ([3]; Botrytis cinerea, 168 h, 0.25 ppm, read-out: Observed efficacy): 38%

OC(Cc1ccccc1Cl)(Cn1nc[nH]c1=S)C1(Cl)CC1 (stereo not drawn) [Prothioconazol, prothioconazole]
inhibition of growth at 1 ppm [1]: 15%
inhibition of growth at 0.25 ppm [2, 5]: 66%
inhibition of growth at 1 ppm [3, 7]: 22%
inhibition of growth at 4 ppm ([3]; Botrytis cinerea, 168 h, 4 ppm, read-out: Observed efficacy): 58%

CC(C)CC(C)c1sccc1NC(=O)c1cn(C)nc1C(F)(F)F (stereo not drawn) [Penthiopyrad, penthiopyrad]
inhibition of growth at 0.063 ppm [2, 4]: 33%
inhibition of growth at 0.063 ppm [3, 8]: 10%
